Experimental data from US5476944A, “Derivatives of cyclic phenolic thioethers” (G. D. Searle & Co., priority 1994, dated 1995).
Where two headings read alike, the source gives them in different places.

Experiments:
Rats = assay: Chronic adjuvant-induced polyarthritis test; type: in vivo; details: intragastric; for minimal effective dose: Rattus norvegicus, po, 456 h, 18 days, rats, read-out: Minimum dose to result in a statistically significant reduction [p < 0.05] in the paw volume/body weight ratio; for % Inhibition in the paw volume to body weight ratio: at minimum significant dose 25 mg/kg/day, day 19, rats
Description: Chronic adjuvant-induced polyarthritis test:
Rats [50-70 gm] were weighed, ear tagged and intradermally inoculated in the tail base with 2.0 mg of heat killed M. butyricum suspended in 0.05 ml of white paraffin oil [n=12-15 per group]. Compounds were intragastrically administered beginning on the day of inoculation and continued for 18 days. Each daily dose was split [dose volume=0.5 ml/100 gm] and given approximately 7 hours apart. Animals were weighed every 3 days, and the dose was adjusted accordingly. On day 19, animals were sacrificed by inhalation of CO2, weighed, and total hind paw volume was measured by the displacement of water with a plethysmometer (Ugo Basile, Varese, Italy). A group of age-matched naive rats were included. These rats, designated "normal," were not inoculated with adjuvant or gavaged with vehicle.
For individual experiments, the paw volume/body weight ratios for each dose were compared to the ratio for the vehicle treated control group by a two-tailed Dunnett's t-test (p ≤0.05). The Dunnett's test was preceded by a Bartlett's test of variance homogeneity across the dose groups. If the Bartlett's test was significant, an appropriate variance stabilizing transformation was applied to the data, and the Dunnett's test was performed on the transformed data.

[1] = molecular target: T1, Sheep Seminal Vesicle Microsome Cyclooxygenase (Ovis aries, UniProt P05979); assay: Inhibition of Sheep Seminal Vesicle Microsome Cyclooxygenase; type: biochemical; details: for IC50: sheep seminal vesicle microsomes
T1 construct: Lyophilized ovine microsome (approximately 1 mg) suspended in 2.9 ml Tris-HCl buffer; from tissue; host or cells: sheep seminal vesicle microsomes, lyophilized
T1 sequence (P05979 25-600): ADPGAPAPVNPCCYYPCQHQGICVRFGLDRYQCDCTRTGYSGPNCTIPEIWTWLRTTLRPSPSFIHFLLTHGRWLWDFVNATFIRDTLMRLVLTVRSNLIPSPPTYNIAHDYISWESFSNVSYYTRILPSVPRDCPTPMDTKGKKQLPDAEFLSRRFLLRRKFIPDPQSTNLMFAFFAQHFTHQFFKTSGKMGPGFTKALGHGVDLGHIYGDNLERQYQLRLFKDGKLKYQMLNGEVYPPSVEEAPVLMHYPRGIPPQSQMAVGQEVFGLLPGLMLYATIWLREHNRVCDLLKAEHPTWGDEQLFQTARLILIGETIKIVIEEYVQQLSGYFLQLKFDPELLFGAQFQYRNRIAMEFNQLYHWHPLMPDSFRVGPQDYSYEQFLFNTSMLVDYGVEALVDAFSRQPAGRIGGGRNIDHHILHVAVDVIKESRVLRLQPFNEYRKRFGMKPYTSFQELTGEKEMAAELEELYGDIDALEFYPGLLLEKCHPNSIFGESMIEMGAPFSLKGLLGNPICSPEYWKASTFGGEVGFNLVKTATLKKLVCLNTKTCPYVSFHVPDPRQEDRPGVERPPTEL
Description: The compounds of the present invention evaluated with respect to cyclooxygenase inhibition according to the following assay procedure. Inhibition of Sheep Seminal Vesicle Microsome Cyclooxygenase: This assay was based on oxygen consumption during conversion of arachidonic acid to prostaglandin G2 catalyzed by cyclooxygenase BIOCHEM. 11:3276-3285 (1972), which is incorporated herein by reference. Lyophilized ovine microsome (approximately 1 mg) suspended in 2.9 ml Tris-HCl buffer, pH 8.2, containing 0.7 mM phenol were used as source of arachidonate cyclooxygenase. The inhibitor, 50 μl in DMSO, was added and the mixture was preincubated for 5 minutes at 37° C. Fifty μl of arachidonic acid (final concentration 50 μM) was added to start the reaction. The slopes of the initial rates of oxygen uptake, in the presence and absence of inhibitor, were compared to determine reaction inhibition. Percent inhibition was computed using the following formula: [formula]

[2] = tested on: Human neutrophil superoxide generation; assay: Human neutrophil superoxide generation, FMLP-induced; type: cell-based
Description: The compounds of the present invention are evaluated with respect to superoxide modulating activity according to the following assay procedure:
Human neutrophil superoxide generation:
Superoxide generation by formyl-methionyl-leucyl-phenylalanine (FMLP)-stimulated neutrophils was quantitated by the reduction of cytochrome C (Badwey, J. A., Curnutte, J. T. and Karnovsky, M. L., cis-Polyunsaturated fatty acids induce high levels of superoxide production by human neutrophils. J. BIOL. CHEM. 256: 12640-12643, 1981, which is incorporated herein by reference.) To 5 million neutrophils in 2.85 ml of Krebs-Ringer phosphate buffer, pH 7.2, 50 ul of inhibitor (in 10% DMSO/buffer), and 50 ul ferricytochrome C (5 mM, stock) were added and preincubated for 3 minutes at 37° C. Absorption measurements at 550 nm were recorded at start of preincubation. Fifty ul FMLP (6 uM, stock) was added to initiate reaction. A plateau was reached within 3 minutes and this reading minus the initial reading (before addition of FMLP) was used to calculate nanomoles of superoxide generated based on a molar extinction coefficient of 2.1×10^4 cm^-1 mole^-1.
Isolation of human neutrophils:
Human neutrophils were isolated from freshly drawn blood of healthy donors. […] The red cell lysing procedure was repeated, the cells suspended in appropriate buffer (depending on assay) and counted.

5-lipoxygenase = molecular target: T2, 5-lipoxygenase (Rattus norvegicus, UniProt P12527); assay: Inhibition of 5-lipoxygenase, in vitro (5-HETE formation, RBL-1 homogenate supernatant); type: biochemical
T2 construct: The 100,000×g supernatant fraction of Rat Basophilic Leukemia Cell Homogenate (RBL-1); endogenous in cells; host or cells: RBL-1 (rat basophilic leukemia) cells, 100,000xg supernatant of homogenate
T2 sequence (P12527 1-673): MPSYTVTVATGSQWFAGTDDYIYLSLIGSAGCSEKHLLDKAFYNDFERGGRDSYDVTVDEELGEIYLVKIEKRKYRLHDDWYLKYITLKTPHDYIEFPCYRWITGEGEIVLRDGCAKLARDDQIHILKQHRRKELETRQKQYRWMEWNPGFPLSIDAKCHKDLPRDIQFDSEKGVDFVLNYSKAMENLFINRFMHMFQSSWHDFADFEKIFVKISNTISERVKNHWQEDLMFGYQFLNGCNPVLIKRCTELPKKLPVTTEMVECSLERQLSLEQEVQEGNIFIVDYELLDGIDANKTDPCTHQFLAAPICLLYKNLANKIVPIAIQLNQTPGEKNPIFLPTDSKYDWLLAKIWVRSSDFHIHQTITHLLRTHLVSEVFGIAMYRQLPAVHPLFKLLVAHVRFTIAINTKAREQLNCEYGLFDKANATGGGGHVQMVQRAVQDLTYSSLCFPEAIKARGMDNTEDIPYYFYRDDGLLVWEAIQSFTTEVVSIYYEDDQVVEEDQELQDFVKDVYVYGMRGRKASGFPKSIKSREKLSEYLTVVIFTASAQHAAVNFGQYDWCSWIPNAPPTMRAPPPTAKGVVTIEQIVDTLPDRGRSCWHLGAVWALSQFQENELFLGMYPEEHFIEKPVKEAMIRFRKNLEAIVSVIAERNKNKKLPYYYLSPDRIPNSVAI
Description: The compounds of the invention are evaluated with respect to 5-lipoxygenaseinhibition according to the following assay procedure.
Inhibition of 5-lipoxygenase, in vitro:
The 100,000×g supernatant fraction of Rat Basophilic Leukemia Cell Homogenate (RBL-1) serves as a 5-lipoxygenase enzyme source. The enzyme is incubated with [1-^4 C)-arachidonic acid and Ca++ in the presence and absence of test compound. The product of 5-lipoxygenase, 5-hydroxyeicosatetraenoic acid (5-HETE), is separated by thin-layer chromatography and measured by radioactivity. A compound inhibiting 5-HETE synthesis by 30% or more is considered active at that concentration.
For comparison the compound of Formula XX, a known 5-lipoxygenase inhibitor described in U.S. Pat. No. 4,755,524 was used: [drawing 29] (±)[2S*-[[3,5-bis(1,1-dimethylethyl)-4-hydroxyphenyl]thio]-1R*-methylpro poxy]acetic acid.

COX II enzyme = details: metabolite of nabumetone; cited from earlier work
[3] = insertion of the thio group; cited from earlier work
[4] = relative to histamine; cited from earlier work
[5] = in vivo; cited from earlier work

CC(C)(C)c1cc(S[C@@H]2CCCC[C@H]2SCC(=O)O)cc(C(C)(C)C)c1 (relative stereo) [Example 5, trans-[[2-[[3,5-bis(1,1-dimethylethyl)phenyl]thio]cyclohexyl]thio]acetic acid]
minimal effective dose (Rats): 25 mg/kg/day
% Inhibition in the paw volume to body weight ratio (Rats): 64.4%
IC50 [1]: 3.1 µM

O=C(O)CS[C@@H]1CCCC[C@H]1Sc1ccccc1 (relative stereo) [Example 7, trans-[[2-(phenylthio)cyclohexyl]thio]acetic acid]
cyclooxygenase inhibition (in words) [1]: did not inhibit either 5-lipoxygenase or cyclooxygenase
superoxide generation (in words) [2]: did inhibit superoxide generation
5-lipoxygenase inhibition (in words) (5-lipoxygenase): did not inhibit either 5-lipoxygenase or cyclooxygenase

CC(C)(C)c1cc(S[C@@H]2CCCC[C@H]2OCC(=O)O)cc(C(C)(C)C)c1 (relative stereo) [Example 17, trans-[[2-[[3,5-bis(1,1-dimethylethyl)phenyl]thio]cyclohexyl]oxy]acetic acid]
minimal effective dose (Rats): 25 mg/kg/day
% Inhibition in the paw volume to body weight ratio (Rats): 50.8%
IC50 [1]: 3.8 µM

C[C@H](Sc1cc(C(C)(C)C)c(O)c(C(C)(C)C)c1)[C@@H](C)OCC(=O)O (relative stereo) [Formula XX, (±)[2S*-[[3,5-bis(1,1-dimethylethyl)-4-hydroxyphenyl]thio]-1R*-methylpropoxy]acetic acid, reference compound]
superoxide generation (in words) [2]: inhibited both superoxide generation and 5-lipoxygenase
5-lipoxygenase inhibition (in words) (5-lipoxygenase): inhibited both superoxide generation and 5-lipoxygenase

COc1ccc2cc(CC(=O)O)ccc2c1 [6-methoxy-2-napthylacetic acid]
selective inhibition of COX II (in words) (COX II enzyme): selectively inhibit the COX II enzyme

CC(C)(C)c1cc(SC2CCOC2=O)cc(C(C)(C)C)c1O (stereo not shown) [Compound 3]
anti-inflammatory activity (in words) [3]: loss of anti-inflammatory activity

CCCCC/C=C\C\C=C/C=C/C=C/[C@@H](SC[C@H](NC(=O)CC[C@H](N)C(=O)O)C(=O)NCC(=O)O)[C@@H](O)CCCC(=O)O [LTC4]
potency versus histamine in causing long lasting bronchoconstricting effects [4]: at least 100 times

CS(=O)(=O)Nc1ccc([N+](=O)[O-])cc1OC1CCCCC1 [N-(2-cyclohexyloxy-4-nitrophenyl)methanesulfonamide]
anti-inflammatory activity (in words) [5]: anti-inflammatory
gastric side effects (in words) [5]: lacks gastric side effects
